In patent US10870647B2, “Imidazopyridine derivative, method for preparing same, and pharmaceutical composition containing same as active ingredient for preventing or treating cancer” (DAEGU-GYEONGBUK MEDICAL INNOVATION FOUNDATION, priority 2016, dated 2020):
Read-outs that look alike come from different tables or passages of the source.

Assays:
Experiment in all cases: Kinase selectivity, scanMAX Kinase assay panel (DiscoverX), % control at 1 uM
Assay type in all cases: binding
[1] = target: T1, scanMAX Kinase assay panel (Homo sapiens, UniProt P07949); conditions: RET; 1 uM; read-out: Percent Control (%)
T1 construct: purchased DiscoverX
T1 sequence (P07949 29-1114): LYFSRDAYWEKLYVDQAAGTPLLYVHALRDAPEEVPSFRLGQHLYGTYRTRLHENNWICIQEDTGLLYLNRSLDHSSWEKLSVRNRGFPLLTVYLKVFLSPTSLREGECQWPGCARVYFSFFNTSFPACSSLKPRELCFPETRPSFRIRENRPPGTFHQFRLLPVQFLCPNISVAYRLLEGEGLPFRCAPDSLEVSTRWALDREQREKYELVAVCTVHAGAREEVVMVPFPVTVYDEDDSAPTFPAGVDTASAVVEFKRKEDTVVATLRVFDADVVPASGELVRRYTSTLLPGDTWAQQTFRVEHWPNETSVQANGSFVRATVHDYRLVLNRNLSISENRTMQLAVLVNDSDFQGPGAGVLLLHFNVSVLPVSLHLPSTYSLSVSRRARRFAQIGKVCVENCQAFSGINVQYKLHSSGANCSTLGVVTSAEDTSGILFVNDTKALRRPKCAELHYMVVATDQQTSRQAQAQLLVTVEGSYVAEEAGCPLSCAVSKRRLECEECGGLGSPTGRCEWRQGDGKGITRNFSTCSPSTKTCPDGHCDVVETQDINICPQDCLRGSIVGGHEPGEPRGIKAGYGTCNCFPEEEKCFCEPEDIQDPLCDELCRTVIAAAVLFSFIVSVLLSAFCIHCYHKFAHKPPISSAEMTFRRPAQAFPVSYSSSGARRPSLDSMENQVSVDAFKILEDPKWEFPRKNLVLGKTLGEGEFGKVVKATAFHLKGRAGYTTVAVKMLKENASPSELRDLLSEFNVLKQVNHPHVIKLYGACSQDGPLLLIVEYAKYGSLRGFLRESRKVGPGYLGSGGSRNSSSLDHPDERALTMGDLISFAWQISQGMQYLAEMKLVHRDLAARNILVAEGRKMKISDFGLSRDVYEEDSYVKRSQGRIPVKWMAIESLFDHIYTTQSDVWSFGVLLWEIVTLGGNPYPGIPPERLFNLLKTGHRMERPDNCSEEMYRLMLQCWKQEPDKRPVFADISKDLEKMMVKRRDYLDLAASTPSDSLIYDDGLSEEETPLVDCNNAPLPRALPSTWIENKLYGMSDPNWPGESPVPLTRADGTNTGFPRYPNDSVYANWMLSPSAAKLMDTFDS
Summary of the method: (§1)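 1 uM cpd (DMSO) per kinase; % ctrl = [cpd − pos ctrl]/[neg ctrl − pos ctrl] × 100; hit if <35.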

[2] = target: T2, scanMAX Kinase assay panel (Homo sapiens, UniProt P29597); conditions: 1 uM, read-out: Percent Control (%)
T2 construct: purchased DiscoverX
Summary of the method: as §1

[3] = target: T3, scanMAX Kinase assay panel (Homo sapiens, UniProt P35626); conditions: GRK3; 1 uM; read-out: Percent Control (%)
T3 construct: purchased DiscoverX
T3 sequence (P35626 1-688): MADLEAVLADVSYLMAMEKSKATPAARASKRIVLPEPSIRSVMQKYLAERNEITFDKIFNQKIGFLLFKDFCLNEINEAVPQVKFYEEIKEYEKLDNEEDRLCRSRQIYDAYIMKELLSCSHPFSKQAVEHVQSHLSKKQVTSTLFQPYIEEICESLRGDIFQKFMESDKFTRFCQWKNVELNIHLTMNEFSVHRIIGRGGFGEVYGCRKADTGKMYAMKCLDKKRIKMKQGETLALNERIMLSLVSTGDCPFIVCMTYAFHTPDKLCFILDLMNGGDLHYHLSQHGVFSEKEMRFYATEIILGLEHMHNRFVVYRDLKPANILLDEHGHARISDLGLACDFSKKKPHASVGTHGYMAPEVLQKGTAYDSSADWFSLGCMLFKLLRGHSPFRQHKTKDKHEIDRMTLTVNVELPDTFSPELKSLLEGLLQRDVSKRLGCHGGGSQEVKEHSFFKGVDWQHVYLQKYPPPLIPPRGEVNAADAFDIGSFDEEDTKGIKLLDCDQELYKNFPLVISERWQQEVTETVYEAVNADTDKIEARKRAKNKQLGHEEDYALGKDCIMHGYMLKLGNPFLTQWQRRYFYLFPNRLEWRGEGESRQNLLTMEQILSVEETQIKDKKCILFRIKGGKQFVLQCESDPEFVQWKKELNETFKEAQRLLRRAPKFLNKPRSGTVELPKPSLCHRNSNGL
Summary of the method: as §1

[4] = target: T4, scanMAX Kinase assay panel (Homo sapiens, UniProt P45985); conditions: MEK4; 1 uM; read-out: Percent Control (%)
T4 construct: purchased DiscoverX
T4 sequence (P45985 1-399): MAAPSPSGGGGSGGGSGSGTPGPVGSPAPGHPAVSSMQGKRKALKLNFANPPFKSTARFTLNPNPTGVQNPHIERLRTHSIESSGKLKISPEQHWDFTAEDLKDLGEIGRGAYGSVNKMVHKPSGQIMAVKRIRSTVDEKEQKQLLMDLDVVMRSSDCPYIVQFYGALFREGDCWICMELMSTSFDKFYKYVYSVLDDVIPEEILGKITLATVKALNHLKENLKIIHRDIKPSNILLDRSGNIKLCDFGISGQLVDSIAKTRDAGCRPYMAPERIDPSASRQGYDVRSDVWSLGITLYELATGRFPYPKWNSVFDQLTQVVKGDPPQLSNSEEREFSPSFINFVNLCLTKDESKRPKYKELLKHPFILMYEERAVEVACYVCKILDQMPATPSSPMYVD
Summary of the method: as §1

[5] = target: T5, scanMAX Kinase assay panel (Homo sapiens, UniProt Q5S007); conditions: LRRK2; 1 uM; read-out: Percent Control (%)
T5 construct: purchased DiscoverX
T5 sequence (Q5S007 whole entry): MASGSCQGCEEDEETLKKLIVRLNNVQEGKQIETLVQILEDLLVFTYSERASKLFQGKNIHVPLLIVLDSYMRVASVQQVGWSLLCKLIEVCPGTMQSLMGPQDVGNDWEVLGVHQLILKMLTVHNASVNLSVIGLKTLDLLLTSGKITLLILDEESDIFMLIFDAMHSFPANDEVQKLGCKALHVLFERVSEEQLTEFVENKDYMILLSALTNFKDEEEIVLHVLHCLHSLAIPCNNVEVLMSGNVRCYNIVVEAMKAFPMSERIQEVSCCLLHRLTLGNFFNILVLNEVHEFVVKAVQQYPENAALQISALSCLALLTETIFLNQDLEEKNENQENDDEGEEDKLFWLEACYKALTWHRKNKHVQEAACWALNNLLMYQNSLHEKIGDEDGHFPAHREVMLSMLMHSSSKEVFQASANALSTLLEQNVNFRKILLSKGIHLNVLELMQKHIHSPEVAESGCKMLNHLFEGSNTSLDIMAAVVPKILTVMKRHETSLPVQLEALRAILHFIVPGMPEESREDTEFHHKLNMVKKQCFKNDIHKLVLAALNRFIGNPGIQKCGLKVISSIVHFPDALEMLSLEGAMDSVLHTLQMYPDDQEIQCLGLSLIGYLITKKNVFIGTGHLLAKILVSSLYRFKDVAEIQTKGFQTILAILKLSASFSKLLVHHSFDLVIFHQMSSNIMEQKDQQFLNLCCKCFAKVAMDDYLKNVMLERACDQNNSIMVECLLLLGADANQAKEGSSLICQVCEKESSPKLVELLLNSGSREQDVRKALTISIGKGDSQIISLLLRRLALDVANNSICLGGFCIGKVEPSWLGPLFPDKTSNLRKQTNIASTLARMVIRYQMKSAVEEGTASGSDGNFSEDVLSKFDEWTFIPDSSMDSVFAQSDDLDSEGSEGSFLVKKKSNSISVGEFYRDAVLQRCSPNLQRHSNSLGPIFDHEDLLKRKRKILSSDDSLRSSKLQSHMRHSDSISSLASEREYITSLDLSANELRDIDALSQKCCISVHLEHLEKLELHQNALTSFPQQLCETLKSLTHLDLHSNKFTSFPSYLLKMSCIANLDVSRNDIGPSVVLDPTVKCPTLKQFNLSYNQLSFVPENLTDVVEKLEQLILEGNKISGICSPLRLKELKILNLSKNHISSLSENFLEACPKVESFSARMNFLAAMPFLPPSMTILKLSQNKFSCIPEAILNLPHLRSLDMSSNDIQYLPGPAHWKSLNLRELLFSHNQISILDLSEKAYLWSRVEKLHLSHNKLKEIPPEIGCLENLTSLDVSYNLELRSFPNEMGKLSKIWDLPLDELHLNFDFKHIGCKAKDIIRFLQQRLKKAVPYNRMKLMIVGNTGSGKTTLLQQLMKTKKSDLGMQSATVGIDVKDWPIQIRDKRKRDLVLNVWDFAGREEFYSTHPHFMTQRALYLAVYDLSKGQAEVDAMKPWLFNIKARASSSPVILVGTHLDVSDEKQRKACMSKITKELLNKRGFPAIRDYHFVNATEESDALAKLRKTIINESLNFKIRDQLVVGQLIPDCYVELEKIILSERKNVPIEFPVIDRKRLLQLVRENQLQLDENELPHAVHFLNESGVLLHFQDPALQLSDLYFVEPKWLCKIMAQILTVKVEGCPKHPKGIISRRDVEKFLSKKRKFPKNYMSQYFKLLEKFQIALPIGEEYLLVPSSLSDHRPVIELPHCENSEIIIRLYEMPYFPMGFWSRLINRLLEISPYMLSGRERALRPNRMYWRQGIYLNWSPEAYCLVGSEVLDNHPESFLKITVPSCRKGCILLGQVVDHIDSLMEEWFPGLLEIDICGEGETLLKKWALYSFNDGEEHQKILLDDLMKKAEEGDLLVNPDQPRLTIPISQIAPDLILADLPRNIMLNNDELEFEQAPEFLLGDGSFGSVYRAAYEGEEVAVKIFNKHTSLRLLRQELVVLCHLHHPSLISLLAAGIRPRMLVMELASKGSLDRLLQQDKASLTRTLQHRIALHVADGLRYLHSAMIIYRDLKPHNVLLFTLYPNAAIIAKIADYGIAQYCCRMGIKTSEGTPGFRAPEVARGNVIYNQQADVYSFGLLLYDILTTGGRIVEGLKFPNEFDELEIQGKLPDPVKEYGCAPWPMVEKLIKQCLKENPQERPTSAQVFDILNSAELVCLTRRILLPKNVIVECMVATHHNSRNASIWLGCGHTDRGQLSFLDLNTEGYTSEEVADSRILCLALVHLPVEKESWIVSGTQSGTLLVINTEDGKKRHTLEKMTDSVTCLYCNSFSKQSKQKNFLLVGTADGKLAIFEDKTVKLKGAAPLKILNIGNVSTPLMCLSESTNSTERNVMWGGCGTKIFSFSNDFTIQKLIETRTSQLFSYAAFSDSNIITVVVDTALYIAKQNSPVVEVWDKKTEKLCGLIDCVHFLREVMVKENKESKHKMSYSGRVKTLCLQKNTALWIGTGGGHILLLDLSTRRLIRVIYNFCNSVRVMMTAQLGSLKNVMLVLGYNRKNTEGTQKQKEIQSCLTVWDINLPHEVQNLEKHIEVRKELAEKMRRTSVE
Summary of the method: as §1

[6] = target: T6, scanMAX Kinase assay panel (Homo sapiens, UniProt Q8NFD2); conditions: ANKK1; 1 uM; read-out: Percent Control (%)
T6 construct: purchased DiscoverX
T6 sequence (Q8NFD2 1-765): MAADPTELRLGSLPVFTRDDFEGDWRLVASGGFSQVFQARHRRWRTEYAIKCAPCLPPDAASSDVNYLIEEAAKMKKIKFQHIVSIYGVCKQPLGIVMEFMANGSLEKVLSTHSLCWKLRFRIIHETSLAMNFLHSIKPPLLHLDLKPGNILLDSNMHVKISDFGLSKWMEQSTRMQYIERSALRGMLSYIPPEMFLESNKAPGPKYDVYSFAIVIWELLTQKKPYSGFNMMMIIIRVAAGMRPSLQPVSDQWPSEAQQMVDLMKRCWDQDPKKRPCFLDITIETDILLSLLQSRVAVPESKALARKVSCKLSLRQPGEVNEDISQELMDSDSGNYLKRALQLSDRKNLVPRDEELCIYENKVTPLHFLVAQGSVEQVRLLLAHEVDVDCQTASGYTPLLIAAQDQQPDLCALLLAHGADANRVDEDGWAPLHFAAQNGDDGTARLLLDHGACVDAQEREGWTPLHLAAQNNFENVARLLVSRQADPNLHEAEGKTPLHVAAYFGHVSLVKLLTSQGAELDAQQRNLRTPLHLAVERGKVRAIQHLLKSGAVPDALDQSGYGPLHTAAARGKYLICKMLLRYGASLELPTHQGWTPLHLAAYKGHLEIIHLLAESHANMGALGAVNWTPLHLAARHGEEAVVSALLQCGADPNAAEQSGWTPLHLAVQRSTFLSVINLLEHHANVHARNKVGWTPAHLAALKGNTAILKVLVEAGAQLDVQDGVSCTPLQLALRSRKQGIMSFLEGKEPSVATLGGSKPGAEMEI
Summary of the method: as §1

[7] = target: T7, scanMAX Kinase assay panel (Homo sapiens, UniProt Q9Y6E0); conditions: MST3; 1 uM; read-out: Percent Control (%)
T7 construct: purchased DiscoverX
T7 sequence (Q9Y6E0 whole entry): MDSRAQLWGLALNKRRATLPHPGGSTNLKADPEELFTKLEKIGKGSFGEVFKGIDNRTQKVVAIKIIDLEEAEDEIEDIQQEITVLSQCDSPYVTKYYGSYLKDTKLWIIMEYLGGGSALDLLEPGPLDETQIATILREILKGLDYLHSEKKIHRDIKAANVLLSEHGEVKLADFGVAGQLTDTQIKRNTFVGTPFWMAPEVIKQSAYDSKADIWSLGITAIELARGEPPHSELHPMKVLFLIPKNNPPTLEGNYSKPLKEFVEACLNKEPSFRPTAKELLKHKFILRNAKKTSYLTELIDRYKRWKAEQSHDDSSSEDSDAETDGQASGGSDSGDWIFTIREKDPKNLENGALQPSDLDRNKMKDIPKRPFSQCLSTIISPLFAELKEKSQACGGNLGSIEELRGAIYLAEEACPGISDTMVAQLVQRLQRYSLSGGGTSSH
Summary of the method: as §1

Row | Structure (SMILES) | remaining binding at 1 µM [1] | remaining binding at 1 µM ([2]; TYK2 (JH1domain-catalytic)) | remaining binding at 1 µM ([2]; TYK2 (JH2domain-pseudokinase)) | remaining binding at 1 µM [3] | remaining binding at 1 µM [4] | remaining binding at 1 µM [5] | remaining binding at 1 µM [6] | remaining binding at 1 µM [7]
1 | Cc1ccc(C(=O)Nc2ccc(CN3CCN(C)CC3)c(C(F)(F)F)c2)cc1C#Cc1cnc2c(Nc3cnn(C)c3)cccn12 [Example 1, 4-methyl-3-((8-((1-methyl-1H-pyrazol-4-yl)amino)imidazo[1,2-a]pyridin-3-yl)ethynyl)-N-(4-((4-methylpiperazin-1-yl)methyl)-3-(trifluoromethyl)phenyl)benzamide] | 0% | 9% | 100% | 82% | 98% | 10% | 4% | 62%
2 | Cc1cn(-c2cc(NC(=O)c3ccc(C)c(C#Cc4cnc5c(Nc6cnn(C)c6)cccn45)c3)cc(C(F)(F)F)c2)cn1 [Example 12, 4-methyl-N-(3-(4-methyl-1H-imidazol-1-yl)-5-(trifluoromethyl)phenyl)-3-((8-((1-methyl-1H-pyrazol-4-yl)amino)imidazo[1,2-a]pyridin-3-yl)ethynyl)benzamide] | 1% | 96% | 100% | 100% | 100% | 100% | 100% | 86%
3 | Cc1ccc(NC(=O)C2(C(=O)Nc3ccc(F)cc3)CC2)cc1C#Cc1cnc2c(Nc3cnn(C(C)C)c3)cccn12 [Example 78] | 97% | 97% | 100% | 97% | 97% | 95% | 97% | 100%
